Columns and labels:
[1] = tested on: IgM of sera from MS patients and healthy individuals; assay: ELISA of biotinylated synthetic peptide, IgM response of individual human sera; type: binding; design: key to LINE (mark: serum recognizes the peptide): X: 7 sera out of 11 recognize this peptide; conditions: 1/100; for LINE (mark: serum recognizes the peptide) / OD 1 / OD 2 / OD 3 / MEAN: IgM
Experimental: Depending on the information obtained from the preceding examples, the hexapeptides SEQ ID NO: 3 and SEQ ID NO: 4 were synthesized and biotinylated according to the method described in Patent Application No. EP 93420183 with the following modifications: the peptide still bound to the resin is selectively deprotected at the N-terminal position. After overnight incubation with the biotin-NHS at 50% in DMF, the peptide is then cleaved from the resin and treated as described in the patent cited above.
The wells of a Maxisorb (trade name, Nunc) microtiter plate are saturated with 100 μl of a 50 mM NaHCO3 solution, pH 9.6, containing 10 μg/ml of streptavidin for 2 hours at 37° C. The plate is washed with TBS/0.05% Tween 20 buffer. The wells are then saturated with 250 μl of wash buffer supplemented with 10% goat serum for 1 hour at 37° C. and then washed as described above.
The IgM response is determined by addition of a 1/4000 solution of mouse monoclonal antibody anti-alkaline phosphatase-labeled human M immunoglobulin conjugate (bioMérieux Ac 5A10D5). After incubation at 37° C. for one hour the plate is again washed and the p-nitrophenyl phosphate substrate at 1 mg/ml in an […] of diethanolamine, pH 9.8, containing 1 mM MgCl2, is added. The reaction is stopped after 30 minutes by the addition of 50 μl of 3N sodium hydroxide solution. The optical density is read at 405 nm.
This unit was therefore also synthesized and biotinylated.

[2] = tested on: IgG of CSF from patients suffering from MS; assay: ELISA of polypeptides, IgG response of CSFs diluted 1/10 (Table 5, FIGS. 7A and 7B); type: binding, human; design: key to IgG recognition by CSF: positive (+) if the OD value at 492 nm for a 1/10 dilution of the CSF is greater than the mean values obtained for the CSFs from the ND patients+3 times the standard deviation; conditions: for number of positive (+) CSFs: total line, 15 MS patients, CSF 1/10
Description: FIGS. 7A and 7B represents the IgG response of the polypeptides whose peptide sequence consists of, respectively, SEQ ID NO: 13, SEQ ID NO: 12, SEQ ID NO: 14, SEQ ID NO: 16, SEQ ID NO: 19 and SEQ ID NO: 15, with respect to CSFs diluted 1/10; the results assembled in the appended Table 5 are expressed by the difference in the optical density values obtained for the polypeptide tested and the values obtained for the HIV polypeptide used as control; ND corresponds to patients suffering from a neurological disease other than MS, and MS* corresponds to patients suffering from MS.
Table 5, illustrated in FIGS. 7A and 7B, collates the results on the specific recognition of CSF from patients suffering from MS for 6 polypeptides of the invention, SEQ ID NO: 13, SEQ ID NO: 12, SEQ ID NO: 14, SEQ ID NO: 16, SEQ ID NO: 19 and SEQ ID NO: 15.
For each polypeptide tested, identified in Table 5 by its peptide sequence, the CSFs from patients 1-22 suffering from Ms are determined as positive (+) if the OD value at 492 nm for a 1/10 dilution of the CSF is greater than the mean values obtained for the CSFs from the ND patients+3 times the standard deviation.

LAVRHD [SEQ ID NO: 8]
LINE (mark: serum recognizes the peptide) ([1]; serum 33/6 (MS+, remission)): X
OD 1 ([1]; serum 33/6 (MS+, remission)): 516 optical density (×1000)
OD 2 ([1]; serum 33/6 (MS+, remission)): 529 optical density (×1000)
OD 3 ([1]; serum 33/6 (MS+, remission)): 481 optical density (×1000)
MEAN ([1]; serum 33/6 (MS+, remission), (mean less Control 1, 173)): 336 optical density (×1000)
MEAN ([1]; serum 33/6 (MS+, remission), MEAN): 509 optical density (×1000)
LINE (mark: serum recognizes the peptide) ([1]; serum 33/8 (MS+, remission)): X
OD 1 ([1]; serum 33/8 (MS+, remission)): 609 optical density (×1000)
OD 2 ([1]; serum 33/8 (MS+, remission)): 512 optical density (×1000)
OD 3 ([1]; serum 33/8 (MS+, remission)): 568 optical density (×1000)
MEAN ([1]; serum 33/8 (MS+, remission), (mean less Control 1, 173)): 390 optical density (×1000)
MEAN ([1]; serum 33/8 (MS+, remission), MEAN): 563 optical density (×1000)
LINE (mark: serum recognizes the peptide) ([1]; serum 33/18 (MS+, remission)): X
OD 1 ([1]; serum 33/18 (MS+, remission)): 277 optical density (×1000)
OD 2 ([1]; serum 33/18 (MS+, remission)): 262 optical density (×1000)
OD 3 ([1]; serum 33/18 (MS+, remission)): 255 optical density (×1000)
MEAN ([1]; serum 33/18 (MS+, remission), (mean less Control 1, 173)): 92 optical density (×1000)
MEAN ([1]; serum 33/18 (MS+, remission), MEAN): 265 optical density (×1000)
OD 1 ([1]; serum No. 12 (MS−, healthy)): 222 optical density (×1000)
OD 2 ([1]; serum No. 12 (MS−, healthy)): 175 optical density (×1000)
OD 3 ([1]; serum No. 12 (MS−, healthy)): 163 optical density (×1000)
MEAN ([1]; serum No. 12 (MS−, healthy), (mean less Control 1, 173)): 14 optical density (×1000)
MEAN ([1]; serum No. 12 (MS−, healthy), MEAN): 187 optical density (×1000)
OD 1 ([1]; serum No. 13 (MS−, healthy)): 145 optical density (×1000)
OD 2 ([1]; serum No. 13 (MS−, healthy)): 154 optical density (×1000)
OD 3 ([1]; serum No. 13 (MS−, healthy)): 196 optical density (×1000)
MEAN ([1]; serum No. 13 (MS−, healthy), (mean less Control 1, 173)): −6 optical density (×1000)
MEAN ([1]; serum No. 13 (MS−, healthy), MEAN): 165 optical density (×1000)
OD 1 ([1]; serum No. 14 (MS−, healthy)): 320 optical density (×1000)
OD 2 ([1]; serum No. 14 (MS−, healthy)): 165 optical density (×1000)
OD 3 ([1]; serum No. 14 (MS−, healthy)): 143 optical density (×1000)
MEAN ([1]; serum No. 14 (MS−, healthy), (mean less Control 1, 173)): 36 optical density (×1000)
MEAN ([1]; serum No. 14 (MS−, healthy), MEAN): 209 optical density (×1000)
OD 1 ([1]; serum No. 15 (MS−, healthy)): 254 optical density (×1000)
OD 2 ([1]; serum No. 15 (MS−, healthy)): 205 optical density (×1000)
OD 3 ([1]; serum No. 15 (MS−, healthy)): 173 optical density (×1000)
MEAN ([1]; serum No. 15 (MS−, healthy), (mean less Control 1, 173)): 38 optical density (×1000)
MEAN ([1]; serum No. 15 (MS−, healthy), MEAN): 211 optical density (×1000)
LINE (mark: serum recognizes the peptide) ([1]; serum QS 2 (MS+, remission)): X
OD 1 ([1]; serum QS 2 (MS+, remission)): 281 optical density (×1000)
OD 2 ([1]; serum QS 2 (MS+, remission)): 280 optical density (×1000)
OD 3 ([1]; serum QS 2 (MS+, remission)): 231 optical density (×1000)
MEAN ([1]; serum QS 2 (MS+, remission), (mean less Control 1, 173)): 91 optical density (×1000)
MEAN ([1]; serum QS 2 (MS+, remission), MEAN): 264 optical density (×1000)
OD 1 ([1]; serum QS 3 (MS+, remission)): 191 optical density (×1000)
OD 2 ([1]; serum QS 3 (MS+, remission)): 169 optical density (×1000)
OD 3 ([1]; serum QS 3 (MS+, remission)): 164 optical density (×1000)
MEAN ([1]; serum QS 3 (MS+, remission), (mean less Control 1, 173)): 2 optical density (×1000)
MEAN ([1]; serum QS 3 (MS+, remission), MEAN): 175 optical density (×1000)
LINE (mark: serum recognizes the peptide) ([1]; serum QS 4 (MS+, remission)): X
OD 1 ([1]; serum QS 4 (MS+, remission)): 374 optical density (×1000)
OD 2 ([1]; serum QS 4 (MS+, remission)): 361 optical density (×1000)
OD 3 ([1]; serum QS 4 (MS+, remission)): 346 optical density (×1000)
MEAN ([1]; serum QS 4 (MS+, remission), (mean less Control 1, 173)): 187 optical density (×1000)
MEAN ([1]; serum QS 4 (MS+, remission), MEAN): 360 optical density (×1000)
OD 1 ([1]; serum QS 6 (MS+, remission)): 156 optical density (×1000)
OD 2 ([1]; serum QS 6 (MS+, remission)): 147 optical density (×1000)
OD 3 ([1]; serum QS 6 (MS+, remission)): 151 optical density (×1000)
MEAN ([1]; serum QS 6 (MS+, remission), (mean less Control 1, 173)): −22 optical density (×1000)
MEAN ([1]; serum QS 6 (MS+, remission), MEAN): 151 optical density (×1000)
LINE (mark: serum recognizes the peptide) ([1]; serum QS 7 (MS+, remission)): X
OD 1 ([1]; serum QS 7 (MS+, remission)): 311 optical density (×1000)
OD 2 ([1]; serum QS 7 (MS+, remission)): 290 optical density (×1000)
OD 3 ([1]; serum QS 7 (MS+, remission)): 164 optical density (×1000)
MEAN ([1]; serum QS 7 (MS+, remission), (mean less Control 1, 173)): 82 optical density (×1000)
MEAN ([1]; serum QS 7 (MS+, remission), MEAN): 265 optical density (×1000)
LINE (mark: serum recognizes the peptide) ([1]; serum QS 8 (MS+, remission)): X
OD 1 ([1]; serum QS 8 (MS+, remission)): 305 optical density (×1000)
OD 2 ([1]; serum QS 8 (MS+, remission)): 221 optical density (×1000)
OD 3 ([1]; serum QS 8 (MS+, remission)): 265 optical density (×1000)
MEAN ([1]; serum QS 8 (MS+, remission), (mean less Control 1, 173)): 91 optical density (×1000)
MEAN ([1]; serum QS 8 (MS+, remission), MEAN): 264 optical density (×1000)
OD 1 ([1]; serum QS 11 (MS+, remission)): 164 optical density (×1000)
OD 2 ([1]; serum QS 11 (MS+, remission)): 160 optical density (×1000)
OD 3 ([1]; serum QS 11 (MS+, remission)): 139 optical density (×1000)
MEAN ([1]; serum QS 11 (MS+, remission), (mean less Control 1, 173)): −19 optical density (×1000)
MEAN ([1]; serum QS 11 (MS+, remission), MEAN): 154 optical density (×1000)
OD 1 ([1]; serum QS 12 (MS+, remission)): 123 optical density (×1000)
OD 2 ([1]; serum QS 12 (MS+, remission)): 57 optical density (×1000)
OD 3 ([1]; serum QS 12 (MS+, remission)): 148 optical density (×1000)
MEAN ([1]; serum QS 12 (MS+, remission), (mean less Control 1, 173)): −64 optical density (×1000)
MEAN ([1]; serum QS 12 (MS+, remission), MEAN): 109 optical density (×1000)
MS sera recognizing the peptide, IgM response ([1]; same panel of 11 MS remission sera): 7 sera out of 11

MPVSRLCIELDWCPP (MSRV) [SEQ ID NO: 12]
IgG recognition by CSF ([2]; CSF of MS patient 1, 1/10): +
IgG recognition by CSF ([2]; CSF of MS patient 2, 1/10): +
IgG recognition by CSF ([2]; CSF of MS patient 5, 1/10): +
IgG recognition by CSF ([2]; CSF of MS patient 6, 1/10): +
IgG recognition by CSF ([2]; CSF of MS patient 7, 1/10): +
IgG recognition by CSF ([2]; CSF of MS patient 8, 1/10): +
IgG recognition by CSF ([2]; CSF of MS patient 10, 1/10): +
IgG recognition by CSF ([2]; CSF of MS patient 16, 1/10): +
IgG recognition by CSF ([2]; CSF of MS patient 18, 1/10): +
IgG recognition by CSF ([2]; CSF of MS patient 21, 1/10): +
number of positive (+) CSFs [2]: 10+

RGTQEWTELWVSFRA (MSRV) [SEQ ID NO: 19]
IgG recognition by CSF ([2]; CSF of MS patient 5, 1/10): +
IgG recognition by CSF ([2]; CSF of MS patient 6, 1/10): +
IgG recognition by CSF ([2]; CSF of MS patient 7, 1/10): +
IgG recognition by CSF ([2]; CSF of MS patient 8, 1/10): +
IgG recognition by CSF ([2]; CSF of MS patient 10, 1/10): +
IgG recognition by CSF ([2]; CSF of MS patient 18, 1/10): +
IgG recognition by CSF ([2]; CSF of MS patient 21, 1/10): +
IgG recognition by CSF ([2]; CSF of MS patient 22, 1/10): +
number of positive (+) CSFs [2]: 8+

SRGSHEWAVLFRFYY (MSRV) [SEQ ID NO: 16]
IgG recognition by CSF ([2]; CSF of MS patient 1, 1/10): +
IgG recognition by CSF ([2]; CSF of MS patient 2, 1/10): +
IgG recognition by CSF ([2]; CSF of MS patient 3, 1/10): +
IgG recognition by CSF ([2]; CSF of MS patient 5, 1/10): +
IgG recognition by CSF ([2]; CSF of MS patient 6, 1/10): +
IgG recognition by CSF ([2]; CSF of MS patient 7, 1/10): +
IgG recognition by CSF ([2]; CSF of MS patient 8, 1/10): +
IgG recognition by CSF ([2]; CSF of MS patient 10, 1/10): +
IgG recognition by CSF ([2]; CSF of MS patient 18, 1/10): +
IgG recognition by CSF ([2]; CSF of MS patient 21, 1/10): +
IgG recognition by CSF ([2]; CSF of MS patient 22, 1/10): +
number of positive (+) CSFs [2]: 11+

DTPYPWGWLLDEGYD (MSRV) [SEQ ID NO: 15]
number of positive (+) CSFs [2]: 0+
